Test results published in article PMC12110804, “Molecular Characterization and Functional Analysis of Odorant-Binding Proteins in Ectropis grisescens” (International Journal of Molecular Sciences, 2025).
Entries after “also recorded” stand apart in the source; their conditions may differ. Read-outs that look alike come from different tables or passages of the source. Each block holds one compound with its values, some of them ahead of it.

How the values were obtained:
EgriGOBP2 [1] = target: T1, EgriGOBP2 (Ectropis grisescens, UniProt A0A977IVV0); assay: Fluorescence competitive binding assay (1-NPN displacement) with recombinant EgriGOBP2; settings: for binding to EgriGOBP2 (in words, displacement of 1-NPN fluorescence): non-binding ligands
T1 sequence (A0A977IVV0 entry or part of it): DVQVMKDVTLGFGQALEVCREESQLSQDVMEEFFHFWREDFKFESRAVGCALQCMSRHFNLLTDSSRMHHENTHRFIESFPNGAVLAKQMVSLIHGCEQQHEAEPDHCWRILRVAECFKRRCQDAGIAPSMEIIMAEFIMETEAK
Protocol: The excitation wavelength was 337 nm, and the emission spectrum ranged from 370 to 550 nm. […] The binding curves were linearized using Scatchard plots, based on fluorescence intensity values relative to the maximum fluorescence emissions.
The dissociation constants (Ki) of each ligand were calculated with the following equation: Ki = [IC50]/(1 + [1-NPN]/K1-NPN).

RpedOBP38 = test system: RpedOBP38; parameters: method as in PMID 39835200; settings: plant essential oil-derived volatiles with repellent activity; cited from earlier work
Sitophilus zeamais = test system: Sitophilus zeamais; parameters: method as in PMID 31813390; settings: cited from earlier work
EgriGOBP2 [2] = target: T1, EgriGOBP2; assay: Binding of fluorescent probe 1-NPN to recombinant EgriGOBP2 (binding curve, Scatchard plot); settings: 2 µM protein in 20 mM Tris-HCl pH 7.4, 1-NPN 0–16 µM, read-out: dissociation constant (Kd) of 1-NPN
Protocol: The binding affinities of target proteins were measured with an F-7000 fluorescence spectrophotometer (Hitachi, Tokyo, Japan) using a 1 cm light path quartz cuvette, and 1-N-phenyl-naphthylamine (1-NPN) was used as a fluorescent probe. The excitation wavelength was 337 nm, and the emission spectrum ranged from 370 to 550 nm. A total of 24 volatile compounds, including host volatiles and plant essential oil-derived volatiles, were selected for fluorescence competitive binding assays (Table 2). First, the binding affinities of 1-NPN to the target proteins were determined. The protein solutions (2 µM in 20 mM Tris-HCl, pH = 7.4) were titrated with 1-NPN to final concentrations ranging from 0 to 16 µM. The binding curves were linearized using Scatchard plots, based on fluorescence intensity values relative to the maximum fluorescence emissions. Next, each ligand (at concentrations of 0–16 µM, prepared at a 1 mM stock concentration) was added to the 2 µM EgriGOBP2/1-NPN mixture, and competitive binding curves were plotted based on the fluorescence intensity values from three replicates.
The dissociation constants (Ki) of each ligand were calculated with the following equation: Ki = [IC50]/(1 + [1-NPN]/K1-NPN). […]

CpalOBP2 = test system: CpalOBP2; parameters: method as in PMID 25810363; settings: cited from earlier work
C. pallens = test system: C. pallens; parameters: method as in PMID 25810363; settings: glass Y-tube olfactometer; cited from earlier work
[3] = test system: GOBP2 in Ectropis obliqua; parameters: method as in PMID 29543772; settings: host odors; cited from earlier work
[4] = test system: Frankliniella occidentalis, Frankliniella intonsa, and Thrips palmi Karny; parameters: method as in PMID 33346361; settings: Y-tube olfactometer bioassays; cited from earlier work
AgamOBP5 = test system: AgamOBP5; parameters: method as in PMID 36921814; settings: cited from earlier work
[5] = Ki = [IC50]/(1 + [1-NPN]/K1-NPN), 2 µM EgriGOBP2/1-NPN mixture, pH 7.4, read-out: EgriGOBP2 Ki
[6] = displacement of 1-NPN from 2 µM EgriGOBP2/1-NPN mixture, 20 mM Tris-HCl pH 7.4, ligand 0–16 µM, read-out: EgriGOBP2 IC50
[7] = cells printed as “-”: IC50 could not be calculated, read-out: EgriGOBP2 IC50 (dash cells)
[8] = “-”: no detectable Ki, read-out: EgriGOBP2 Ki (dash cells)
[9] = EgriGOBP2 Ki, Ki = [IC50]/(1 + [1-NPN]/K1-NPN), 2 µM EgriGOBP2/1-NPN mixture, pH 7.4
[10] = EgriGOBP2 Ki (dash cells), “-”: no detectable Ki

Compound: C=C(C)[C@@H]1CC=C(C)C(=O)C1 [L(-)-carvone]
Ki (EgriGOBP2 [1]; [5]): 11.6 µM
IC50 (EgriGOBP2 [1]; [6]): 12.9 µM
binding to RpedOBP38 (in words) (RpedOBP38): found to bind

Compound: CC1=CC[C@](O)(C(C)C)CC1 [(+) -4-terpineol]
binding to RpedOBP38 (in words) (RpedOBP38): found to bind

IC50 (EgriGOBP2 [1]; [7]): > 16 µM
Ki (EgriGOBP2 [1]; [8]): > 14.4 µM
Compound: CCCCCCCCC=O [Nonanal]
binding to EgriGOBP2 (in words, displacement of 1-NPN fluorescence) (EgriGOBP2 [1]): negligible binding; also recorded: did not exhibit binding affinity

Compound: C=C(C)C1CC=C(C)C(=O)C1 (centres unmarked) [Carvone]
repellency to Sitophilus zeamais (in words) (Sitophilus zeamais): strongly repellent

Ki (EgriGOBP2 [1]; [5]): 7.93 µM
IC50 (EgriGOBP2 [1]; [6]): 8.79 µM
Compound: C=CC(C)(O)CCC=C(C)CCC=C(C)C (mixture of isomers) [Nerolidol]

Compound: CC(C)=CCCC(C)=CC=O (mixture of isomers) [Citral]
IC50 (EgriGOBP2 [1]): 9.12 µM
Ki (EgriGOBP2 [1]; [9]): 8.23 µM

Compound: O=C/C=C/c1ccccc1 [Cinnamaldehyde]
IC50 (EgriGOBP2 [1]): > 16 µM
Ki (EgriGOBP2 [1]; [10]): > 14.4 µM
binding to EgriGOBP2 (in words, displacement of 1-NPN fluorescence) (EgriGOBP2 [1]): did not bind

Compound: c1ccc(Nc2cccc3ccccc23)cc1 [1-NPN, 1-N-phenyl-naphthylamine]
Kd (EgriGOBP2 [2]): 9.28 µM

Ki (EgriGOBP2 [1]; [5]): 13 µM
IC50 (EgriGOBP2 [1]; [6]): 14.3 µM
Compound: CC(=O)OCc1ccccc1 [Benzyl acetate]

Ki (EgriGOBP2 [1]; [5]): 21.2 µM
IC50 (EgriGOBP2 [1]; [6]): 23.5 µM
Compound: CCCCCCO [n-hexyl alcohol]

Compound: CC(C)=CCC/C(C)=C/CC/C(C)=C/CO [farnesol]
binding affinity for CpalOBP2 (in words) (CpalOBP2): strong and high binding affinities
behavioral response of C. pallens (in words) (C. pallens): significant and strong repellent behavioral responses

Compound: O=Cc1ccccc1 [Benzaldehyde]
IC50 (EgriGOBP2 [1]): > 16 µM
Ki (EgriGOBP2 [1]; [10]): > 14.4 µM
binding to EgriGOBP2 (in words, displacement of 1-NPN fluorescence) (EgriGOBP2 [1]): negligible binding; also recorded: did not exhibit binding affinity
competitive binding to Ectropis obliqua GOBP2 (in words) [3]: competitively bind

Ki (EgriGOBP2 [1]; [5]): 14 µM
IC50 (EgriGOBP2 [1]; [6]): 15.5 µM
Compound: CC/C=C\CCOC(=O)CCCCC [Cis-3-hexenyl caproate]

Ki (EgriGOBP2 [1]; [5]): 13.1 µM
IC50 (EgriGOBP2 [1]; [6]): 14.5 µM
Compound: CC/C=C\CCOC(C)=O [Cis-3-hexenyl acetate]

Ki (EgriGOBP2 [1]; [5]): < 10 µM
IC50 (EgriGOBP2 [1]; [6]): 9.36 µM
Compound: CC12CCC(CC1)C(C)(C)O2 [Eucalyptol]
repellent activity against three thrip species (in words) [4]: significant repellent activity

IC50 (EgriGOBP2 [1]; [7]): > 16 µM
binding to EgriGOBP2 (in words, displacement of 1-NPN fluorescence) (EgriGOBP2 [1]): negligible binding
Ki (EgriGOBP2 [1]; [8]): > 14.4 µM
Compound: CCCCCCCCCC=O [Decanal]

Ki (EgriGOBP2 [1]; [5]): 40.6 µM
IC50 (EgriGOBP2 [1]; [6]): 44.8 µM
Compound: C=CC(O)CC (centres unmarked) [1-penten-3-ol]

Compound: OCc1ccccc1 [Benzyl alcohol]
IC50 (EgriGOBP2 [1]): 30 µM
Ki (EgriGOBP2 [1]; [9]): 27 µM

Compound: farnesene
binding affinity for CpalOBP2 (in words) (CpalOBP2): strong and high binding affinities
behavioral response of C. pallens (in words) (C. pallens): significant and strong repellent behavioral responses

Compound: C=C(C)[C@H]1CC=C(C)C(=O)C1 [(S)-(+)-carvone]
binding affinity to EgriGOBP2 (class in words) (EgriGOBP2 [1]): strong (strong (6 µM < Ki ≤ 22 µM))
IC50 (EgriGOBP2 [1]; [6]): 5.36 µM

Compound: C=CCc1ccc(OC)cc1 [4-allylanisole]
IC50 (EgriGOBP2 [1]): 8.1 µM
Ki (EgriGOBP2 [1]; [9]): 7.31 µM

binding affinity to EgriGOBP2 (class in words) (EgriGOBP2 [1]): moderate (moderate (22 µM < Ki ≤ 40 µM))
Ki (EgriGOBP2 [1]; [5]): 18 µM
IC50 (EgriGOBP2 [1]; [6]): 19.9 µM
Compound: C=CC(C)=CCC=C(C)C [Ocimene]

Compound: Cc1ccc(C(C)C)cc1O [Carvacrol]
IC50 (EgriGOBP2 [1]): 23.6 µM
Ki (EgriGOBP2 [1]; [9]): 21.3 µM
binding to AgamOBP5 (in words) (AgamOBP5): strong binder
binding to RpedOBP38 (in words) (RpedOBP38): found to bind

binding affinity to EgriGOBP2 (class in words) (EgriGOBP2 [1]): moderate (moderate (22 µM < Ki ≤ 40 µM))
Ki (EgriGOBP2 [1]; [5]): 18.6 µM
IC50 (EgriGOBP2 [1]; [6]): 20.6 µM
Compound: CC/C=C\CCOC(=O)CCC [Cis-3-hexenyl tyrate]

Compound: CCC/C=C/C=O [E-2-hexenal]
IC50 (EgriGOBP2 [1]): > 16 µM
Ki (EgriGOBP2 [1]; [10]): > 14.4 µM
binding to EgriGOBP2 (in words, displacement of 1-NPN fluorescence) (EgriGOBP2 [1]): negligible binding; also recorded: did not exhibit binding affinity

Ki (EgriGOBP2 [1]; [5]): 22.3 µM
IC50 (EgriGOBP2 [1]; [6]): 24.7 µM
Compound: CC(=O)OC/C=C(\C)CCC=C(C)C [Geranyl acetate]

Compound: C=CC(C)(O)CCC=C(C)C (centres unmarked) [Linalool]
IC50 (EgriGOBP2 [1]): 11.9 µM
Ki (EgriGOBP2 [1]; [9]): 10.8 µM

Compound: COC(=O)c1ccccc1O [Methyl salicylate]
IC50 (EgriGOBP2 [1]): 17.3 µM
Ki (EgriGOBP2 [1]; [9]): 15.6 µM
competitive binding to Ectropis obliqua GOBP2 (in words) [3]: competitively bind

Compound: C=CCc1ccc(O)c(OC)c1 [Eugenol]
IC50 (EgriGOBP2 [1]): 9.28 µM
Ki (EgriGOBP2 [1]; [9]): 8.38 µM
